# Reference: patent publication US10464920B2, “Vicinal primary diamines associated with metal and/or free radical chelation motifs, and active against carbonyl and oxidative stress, and use thereof” (UNIVERSITE AMIENS PICARDIE JULES VERNE, priority 2015, dated 2019)
# Assays:
# [1] = ORACFL test (Oxygen Radical Absorbance Capacity) using fluorescein/AAPH; assay type: physicochemical; details: compounds at 10 μM; for ORACFL: mean ± SEM of three independent experiments in triplicate
# Protocol: The antioxidant properties of the compounds according to the invention were evaluated using a ORACFL test using fluorescein (J. Agric. Food Chem., 2004 52, 48-54; J. Agric. Food Chem., 2005, 53, 4290-4302). As such, peroxide radicals, generated in the presence of AAPH (2,2′-azobis(2-methylpropionamidine)dihydrochloride) at 37° C., react with this fluorescent sensor in order to give a non-fluorescent product. The protective effect of the test compounds can then be determined by following the decay curve of the fluorescence of the fluorescein over time and be measuring the area under the curve (AUC) of the sample in relation to that of a control corresponding to an absence of antioxidant.
# The trolox (6-hydroxy-2,5,7,8-tetramethylchroman-2-carboxylic acid), a water-soluble analogue of vitamin E, is used as a standard for calculating the antioxidant capacity (ORACFL) of the compounds tested at 10 μM, expressed in […] of tested compound. This value is as such obtained using the straight-line calibration equation giving the area under the curve according to the various concentrations of trolox (Bioorg. Med. Chem., 2015, 23, 1135-1148) (FIG. 11).
# A solution of fluorescein (FL) (12 nM; 150 μL) is introduced into a black 96-well plate (Dutscher, Brumath, France). The compounds to be tested (1-20 μM; 25 μL) or trolox (1-50 μM; 25 μL) dissolved in D-PBS are added into each well. After equilibration of the plate during an incubation at 37° C. for a minimum of 30 min, the radical reactions are initiated using a solution of AAPH prepared extemporaneously (30 mM; 25 μL). The fluorescence (λEx: 485 nm; λEm: 520 nm) is measured every 90 seconds for 60 cycles using a temperature-controlled Tecan Infinite® 200 PRO microplate reader (measurements taken in triplicates during three independent experiments).
# [2] = tested on: low-density lipoproteins (LDLs); assay: Antiradical properties: inhibition of lipid peroxidation in AAPH-induced oxidation of LDLs; assay type: biochemical; details: high concentration (100 μM)
# Protocol: The antiradical properties of the various compounds are determined by inhibition of the lipid peroxidation in the in vitro model of the oxidation of the low-density lipoproteins (LDLs) (Free Radic. Biol. Med., 1992, 13, 341-390). The lipid peroxidation is initiated by the attack by free radicals of a double bond of a polyunsaturated fatty acid present in the LDLs. […] Once initiated, the oxidation of the LDLs is a chain reaction of lipid peroxidation generated by the free radicals. The oxidation in vitro of the LDLs is induced at 37° C. by the adding of the water-soluble compound 2,2′-Azobis(2-methylpropionamidine)dihydrochloride (AAPH), which generates free radicals during the spontaneous thermal breakdown thereof
# Briefly, the oxidation, carried out in a 96-well plate, is induced at 37° C. by adding 20 μL of a solution of AAPH at 2 mM in D-PBS at 160 μL of LDL (100 μg/mL) in the presence or absence of 20 μL of the various solutions of the compounds to be tested dissolved in D-PBS (0.1 to 100 μM in final concentrations). The LDLs alone without adding AAPH are used as a negative control. Each oxidation is carried out in double. During the oxidation, the formation of the conjugated dienes is followed by the measurement of the optical density at 234 nm every 10 minutes for 8 h at 37° C. using a temperature-controlled TECAN spectrophotometer. The vitamin E (α-tocopherol) which is a powerful antioxidant recognised in this in vitro model is used as a reference molecule (J. Nutr. Biochem., 2012, 23, 845-51).
# [3] = tested on: murine endothelial brain cells (bEnd.3); assay: Cytotoxicity, cellular viability (CCK-8/WST-8) on bEnd.3; assay type: cell-based
# Protocol: (§1) The cellular viability is evaluated by a colorimetric method based on the detection of the conversion of a salt of the tetrazolium (WST-8) by the metabolically active cells (CCK-8 kit, Sigma, Lyons, France) (Molecules, 2014, 19(8), 12048-12064; J. Pharmacol. Toxicol. Methods., 2007, 56(1), 58-62). Living cells have mitochondrial dehydrogenases that reduce the WST-8 (2-(2-methoxy-4-nitrophenyl)-3-(4-nitrophenyl)-5-(2,4-disulfophenyl)-2H-tetrazolium), monosodium salt) to formazan of an orange colour, which dissolves directly in the culture medium in the presence of 1-Methoxy PMS (1-methoxy-5-methylphenazinium methyl sulphate). After an incubation for 1 h at 37° C., the absorbance of the formazan is measured at 450 nm. The absorbance is directly proportional to the number of living cells.
# (§2) Briefly, the cells are inoculated in 96-well plates at a rate of 5.10^3 cells per well in 100 μL of the suitable medium until subconfluence. The cells are then washed with D-PBS, then treated with various concentrations (10 μM, 100 μM) of the products to be tested in triplicates for 24 and 48 h. A positive control is carried out with 10% of DMSO. The CCK-8 (10 μL) solution is then added to each well for an incubation for 1 h at 37° C. The measurement of the absorbance is taken at 450 nm using a Perkin Elmer 2103 Envision® microplate reader.
# (§3) The viability of the cells is expressed as a % of the control (untreated cells) by the mean±standard deviation of triplicates forming a representative experiment or of three independent experiments conducted in triplicate.
# [4] = tested on: human fibroblasts (MRC-5); assay: Cytotoxicity, cellular viability (CCK-8/WST-8) on MRC-5; assay type: cell-based
# Protocol: as §1, §2, §3
# [5] = tested on: rat pheochromocytoma cells, treated as neuronal cells (PC12); assay: Cytotoxicity, cellular viability (CCK-8/WST-8) on PC12; assay type: cell-based
# Protocol: as §1, §2, §3
# [6] = Formation of adducts with MGO, kinetic study by HPLC; assay type: physicochemical; details: compound 10 mM, MGO 20 mM, 37° C., after 15 min of incubation
# Protocol: The compounds to be tested are incubated at 37° C. in the presence of MGO or of MDA. A kinetic study aiming to report on the formation of adducts with the MGO or MDA is then carried out via HPLC analysis.
# The compounds to be tested (30 μmol) are dissolved in PBS (1.5 mL). An aqueous solution (qsp 1.25 mL) of MGO at 40% in water (250 μmol) is then prepared and in parallel, MDA bis-(diOEt)-acetal (250 μmol) is set to react with a solution of HCl 1N (2 eq) in water (qsp 1.25 mL) for 1 h at room temperature. An aqueous solution of NaOH 0.05N is also required to neutralise the reaction medium (5 mL).
# The solution of the compound to be tested (625 μL—final concentration in the medium=10 mM) is then set to react with the solution of MGO or of MDA prepared extemporaneously (125 μL—final concentration in the medium=20 mM) in the presence of NaOH 0.05 N (0.5 mL).
# The various mixtures are then incubated in the oven at 37° C. for 24 h.
# A sampling of each mixture (100 μL) is taken at regular intervals of time (0.25; 0.5; 1; 5 and 24 h) and stored at −20° C. in order to stop the reaction. After dilution in a MeCN/H2O 98:2 mixture at room temperature, the HPLC analysis is carried out on a Shimadzu LCMS-2020 apparatus (UV chromatogram at 190 nm and mass spectrum in positive electrospray ionisation mode (ESI+)) after separation on the Waters Acquity column using a gradient of solvents H2O+HCOOH 0.1%/MeCN+HCOOH 0.1% (98/2 for 2 min, then 55/45 for 2 min and 45/55 for 3 min) with a flow rate of 0.3 mL/min at 40° C. and an injection of volume of 1 (“detection mode: scan, interface voltage: tuning file, DL voltage: 100 V, Q-array DC: 40 V, Q-array RF: 40 V”). A blank is first of all carried out using a solution containing the reaction medium without scavenger. Then, a free scavenger solution at 10 mM is used as a negative control and the carnosine as a reference of the literature. The proportion of adducts formed with the MGO or MDA (generally, tR=4.1 to 6.8 min) is then measured in relation to the quantity of remaining free scavenger (generally, tR=0.8 to 4.6 min) after measurement of the area under the curve of the corresponding peaks on the UV spectrum (measurements taken for a representative sample).
# [7] = MRC-5, 10 μM, 24 h of treatment
# [8] = MRC-5, 10 μM, 48 h of treatment
# [9] = MRC-5, 100 μM, 24 h of treatment
# [10] = MRC-5, 100 μM, 48 h of treatment
structure (smiles),measurement,setting,value
"NCC(N)CC(=O)N1CCN(C(=O)CCn2cccc(O)c2=O)CC1 (stereo not shown) [Compound 37d, 1-(3-(4-(3,4-diaminobutanoyl)piperazin-1-yl)-3-oxopropyl)-3-hydroxypyridin-2(1H)-one]",ORACFL,[1],1.21 ± 0.07 μmol TE/μmol
"Cl.Cl.NCC(N)C(=O)N1CCNCC1 (stereo not shown) [Dap-Pip, reference compound]",anti-radical effect,[2],does not show any anti-radical effect
same,viability of the cells as a percentage of the untreated cells,"[3]; bEnd.3, 10 μM, 24 h of treatment",123%
same,viability of the cells as a percentage of the untreated cells,"[3]; bEnd.3, 10 μM, 48 h of treatment",131%
same,viability of the cells as a percentage of the untreated cells,"[3]; bEnd.3, 100 μM, 24 h of treatment",103%
same,viability of the cells as a percentage of the untreated cells,"[3]; bEnd.3, 100 μM, 48 h of treatment",142%
same,"antioxidant capacity (ORACFL), in words",[1],absence of activity
same,ORACFL,[1],0 μmol TE/μmol
same,viability of the cells as a percentage of the untreated cells,[4]; [7],125%
same,viability of the cells as a percentage of the untreated cells,[4]; [8],113%
same,viability of the cells as a percentage of the untreated cells,[4]; [9],128%
same,viability of the cells as a percentage of the untreated cells,[4]; [10],111%
same,viability of the cells as a percentage of the untreated cells,"[5]; PC12, 10 μM, 24 h of treatment",114%
same,viability of the cells as a percentage of the untreated cells,"[5]; PC12, 10 μM, 48 h of treatment",110%
same,viability of the cells as a percentage of the untreated cells,"[5]; PC12, 100 μM, 24 h of treatment",120%
same,viability of the cells as a percentage of the untreated cells,"[5]; PC12, 100 μM, 48 h of treatment",102%
"NCC(N)CCC(=O)N1CCN(C(=O)c2cc(O)c(O)c(O)c2)CC1 (stereo not shown) [Compound 30a, 4,5-diamino-1-(4-(3,4,5-trihydroxybenzoyl)piperazin-1-yl)pentan-1-one]",viability of the cells as a percentage of the untreated cells,"[3]; mouse, 24 h, 10 μM",117%
same,viability of the cells as a percentage of the untreated cells,"[3]; mouse, 24 h, 100 μM",96%
same,viability of the cells as a percentage of the untreated cells,"[3]; mouse, 48 h, 10 μM",95%
same,viability of the cells as a percentage of the untreated cells,"[3]; mouse, 48 h, 100 μM",108%
same,ORACFL,[1],0.89 ± 0.10 μmol TE/μmol
same,viability of the cells as a percentage of the untreated cells,[4]; [7],115%
same,viability of the cells as a percentage of the untreated cells,[4]; [8],101%
same,viability of the cells as a percentage of the untreated cells,[4]; [9],112%
same,viability of the cells as a percentage of the untreated cells,[4]; [10],103%
same,viability of the cells as a percentage of the untreated cells,"[5]; rat, 24 h, 10 μM",116%
same,viability of the cells as a percentage of the untreated cells,"[5]; rat, 24 h, 100 μM",140%
same,viability of the cells as a percentage of the untreated cells,"[5]; rat, 48 h, 10 μM",96%
same,viability of the cells as a percentage of the untreated cells,"[5]; rat, 48 h, 100 μM",113%
"NCC(N)CCC(=O)N1CCN(C(=O)CCn2cccc(O)c2=O)CC1 (stereo not shown) [Compound 37f, 1-(3-(4-(4,5-diaminopentanoyl)piperazin-1-yl)-3-oxopropyl)-3-hydroxypyridin-2(1H)-one]",ORACFL,[1],1.96 ± 0.24 μmol TE/μmol
same,disappearance of the free scavenger to the benefit of adducts with the MGO,[6],almost total disappearance of the free scavenger
"Cc1c(C)c2c(c(C)c1O)CCC(C)(C(=O)O)O2 (stereo not shown) [Trolox, 6-hydroxy-2,5,7,8-tetramethylchroman-2-carboxylic acid, reference compound]",ORACFL,[1],1 μmol TE/μmol
"NCCC(=O)N[C@@H](Cc1cnc[nH]1)C(=O)O [Carnosine, carnosine, reference compound]","antioxidant capacity (ORACFL), in words",[1],very low activity
same,ORACFL,[1],0.08 ± 0.05 μmol TE/μmol
